Source: patent US20060258754A1, “Method of treating endothelial dysfunction, oxidative stress and related diseases” (priority 2004, published 2006)

Key:
[1] = Blood glucose and serum triglycerides after chronic administration in alloxan diabetic rats; type: in vivo, alloxan induced diabetic rats; details: 20 mg/kg 2× daily for 4 weeks
Description: The use of DCI and its derivative for the treatment of a variety of metabolic disorders, more specifically those that are related to insulin resistance have been the subject matter of patents and publications. The treatment of insulin resistance in humans by the administration of DCI was the subject matter of U.S. Pat. No. 5,124,360. Since DCI is found in the food chain it has a safety profile that warrants its use as a nutritional supplement. A method of treating a cluster of diseases with elevated blood sugar by the administration of a dietary supplement of DCI was the subject of U.S. Pat. No. 5,428,066.
Male Wistar rats, weighing between 230-250 g, fed regular chow, with free access to water were separated in four groups (n=10/each). The first two groups, termed normoglycemic, were treated with saline (0.1 mL/100 g/12 h) by the oral route (intragastric gavage) or untreated for four weeks. The second two groups, hyperglycemic, were treated with saline (0.1 mL/100 g/12 h) or treated with D-chiro-inositol (20 mg/kg/12 h) under the same protocol. […] Diabetes was induced by a single intravenous injection of 45 mg/kg alloxan as described by Sannomiya et al., 1997 ( ). Diabetes was diagnosed 96 h after injection by blood glucose assay >200 mg/dL. […]

[2] = several publications; cited from earlier work
[3] = human PCOS; cited from earlier work

**Q.** With OC1C(O)C(O)C(O)C(O)C1O [DCI, D-chiro-inositol] as the molecule, how does the blood glucose [1] read?
**A.** decreased

**Q.** What about the serum triglycerides [1] of the same molecule?
**A.** decreased

**Q.** And the “hyperglycemia, triglyceridemia and glucose disposal” value [2]?
**A.** effective decrease of hyperglycemia, triglyceridemia and enhanced glucose disposal

**Q.** And the “ovulation, glucose tolerance and metabolic balance in PCOS” value [3]?
**A.** effective in human PCOS in restoring ovulation, glucose tolerance and metabolic balance
